Legend:
Type in all cases: cell-based
[1] = target: T1, BTK (TMD-8 cells) (Homo sapiens (Human), UniProt Q06187); experiment: BTK degradation HTRF assay in TMD-8 cells (Test Example 1); conditions: Table 3; for DC50: 6 h treatment, BTK degradation; for Dmax: TMD8, 6 h treatment, maximum percentage of BTK degradation
Protocol: 1c). […] TMD-8 cells are treated with compounds diluted in 0.2% DMSO, dilution is done according to the following protocol: (1) make 500× stock solution in DMSO from 1 mM by 6-fold dilution, total 8 doses were included; (2) make 2× solution in cell culture medium by transferring 0.5 μl 500× stock solution into 125 μl medium; (3) 15 μl of 2× solution is added to cells and incubate for 6 h.
(§1) After 6 h treatment, add 10 μl 4xlysis buffer to each well; seal the plate and incubate 30 min at room temperature on a plate shaker; Once the cells are lysed, 16 μL of cell lysate are transferred to a PE 384-well HTRF detection plate; 4 μL of pre-mixed HTRF antibodies are added to each well; Cover the plate with a plate sealer, spin 1000 rpm for 1 min, Incubate overnight at room temperature; Read on BMG PheraStar with HTRF protocol (337 nm-665 nm-620 nm).
(§2) The IC50 (DC50) value of a compound can be obtained by fitting the following equation
(§3) Y=Bottom+(TOP−Bottom)/(1+((IC50/X)^hillslope))
(§4) Wherein, X and Y are known values, and IC50, Hillslope, Top and Bottom are the parameters obtained by fitting with software. Y is the inhibition percentage (calculated from the equation), X is the concentration of the compound; IC50 is the concentration of the compound when the 50% inhibition is reached. The smaller the IC50 value is, the stronger the inhibitory ability of the compound is. Vice versa, the higher the IC50 value is, the weaker the ability the inhibitory ability of the compound is; Hillslope represents the slope of the fitted curve, generally around 1*; Bottom represents the minimum value of the curve obtained by data fitting, which is generally 0%±20%; Top represents the maximum value of the curve obtained by data fitting, which is generally 100%±20%. The experimental data were fitted by calculating and analyzing with Dotmatics data analysis software.

[2] = target: T1, BTK (TMD-8 cells); experiment: BTK degradation HTRF assay in TMD-8 cells (Test Example 3); conditions: 6 h treatment, Table 5
Protocol: TMD-8 cells were treated with compounds diluted in 0.2% DMSO, dilution was done according to the following protocol: (1) making 500× stock solution in DMSO from 1 mM by 6-fold dilution, total 8 doses were included; (2) making 2× solution in cell culture medium by transferring 0.5 μl 500× stock solution into […]; (3) adding 15 μl of 2× solution to cells for incubation of 6 h.
After 6 h treatment, 10 μl 4xlysis buffer was added to each well; the plate was sealed and incubated for 30 min at room temperature on a plate shaker; Once the cells was lysed, 16 μL of cell lysate were transferred to a PE 384-well HTRF detection plate; 4 μL of pre-mixed HTRF antibodies were added to each well; the plate was covered with a plate sealer, and then spinned at 1000 rpm for 1 min, then incubated overnight at room temperature; the results were read on BMG PheraStar with HTRF protocol (337 nm-665 nm-620 nm).
as §2, §3
as §4, with “wherein,” for “Wherein,”

[3] = test system: HEK-293 cells; experiment: HEK-293 cytotoxicity detection (CellTiter-Glo); conditions: Homo sapiens, HEK293, 72 h incubation
Protocol: HEK-293 cells were treated with compounds diluted in 0.2% DMSO, dilution was done according to the following protocol: (1) making 500× stock solution in DMSO from 5 mM by 4-fold dilution, total 8 doses were included; (2) making 2× solution in cell culture medium by transferring 0.5ul 500× stock solution into 125ul medium; (3) adding 50ul of 2× solution to cells for incubation of 72 h.
25 μl of the CellTiter-Glo®Reagent [(Promega) - Cat No. G7572] was added to each well in the 96-well plate. The contents were mixed for 2 minutes on an orbital shaker to induce cell lysis. The plate was then allowed to incubate at room temperature for 10 minutes to stabilize luminescent signal. Luminescence was recorded on BMG PheraStar with luminescence protocol.
The IC50 value of a compound can be obtained by fitting the following equation
as §3, §4

[4] = target: IRAKM (THP-1 cells) (Homo sapiens (Human), UniProt Q9Y616); experiment: IRAKM degradation HTRF assay in THP-1 cells; conditions: 6 h treatment
IRAKM (THP-1 cells), sequence (Q9Y616 whole entry): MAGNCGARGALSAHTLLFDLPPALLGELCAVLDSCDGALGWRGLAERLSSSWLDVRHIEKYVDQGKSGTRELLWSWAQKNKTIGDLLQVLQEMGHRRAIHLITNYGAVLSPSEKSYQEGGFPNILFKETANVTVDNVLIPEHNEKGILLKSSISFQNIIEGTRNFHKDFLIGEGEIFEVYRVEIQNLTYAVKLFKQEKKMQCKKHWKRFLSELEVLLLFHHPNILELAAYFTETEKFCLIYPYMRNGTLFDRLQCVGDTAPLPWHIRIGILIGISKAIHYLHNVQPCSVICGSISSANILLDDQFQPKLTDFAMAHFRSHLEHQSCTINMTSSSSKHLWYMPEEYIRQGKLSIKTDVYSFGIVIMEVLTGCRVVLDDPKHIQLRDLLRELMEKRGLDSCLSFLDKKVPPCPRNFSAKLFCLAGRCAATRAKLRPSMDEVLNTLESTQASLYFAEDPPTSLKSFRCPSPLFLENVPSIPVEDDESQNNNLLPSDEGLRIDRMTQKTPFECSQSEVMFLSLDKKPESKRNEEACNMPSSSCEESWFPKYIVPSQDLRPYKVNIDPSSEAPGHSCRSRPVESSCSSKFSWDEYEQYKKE
Protocol: THP-1 cells are treated with compounds diluted in 0.2% DMSO, dilution is done according to the following protocol: (1) make 500× stock solution in DMSO from 5 mM by 5-fold dilution, total 8 doses were included; (2) make 2× solution in cell culture medium by transferring 0.5 μl 500× stock solution into 125 μl medium; (3) 15 μl of 2× solution is added to cells and incubate for 6 h.
as §1, with “1 hour” for “30 min”, “plate(for triple mutant cells, the lysate were diluted by the qual volume 1xlysis buffer before transfer);” for “plate;”
as §2, §3
Wherein, X and Y are known values, and IC50, Hillslope, Top and Bottom are the parameters obtained by fitting with software. Y is the inhibition percentage (calculated from the equation), X is the concentration of the compound; IC50 is the concentration of the compound when the 50% inhibition is reached. […]

T1 sequence (Q06187 whole entry): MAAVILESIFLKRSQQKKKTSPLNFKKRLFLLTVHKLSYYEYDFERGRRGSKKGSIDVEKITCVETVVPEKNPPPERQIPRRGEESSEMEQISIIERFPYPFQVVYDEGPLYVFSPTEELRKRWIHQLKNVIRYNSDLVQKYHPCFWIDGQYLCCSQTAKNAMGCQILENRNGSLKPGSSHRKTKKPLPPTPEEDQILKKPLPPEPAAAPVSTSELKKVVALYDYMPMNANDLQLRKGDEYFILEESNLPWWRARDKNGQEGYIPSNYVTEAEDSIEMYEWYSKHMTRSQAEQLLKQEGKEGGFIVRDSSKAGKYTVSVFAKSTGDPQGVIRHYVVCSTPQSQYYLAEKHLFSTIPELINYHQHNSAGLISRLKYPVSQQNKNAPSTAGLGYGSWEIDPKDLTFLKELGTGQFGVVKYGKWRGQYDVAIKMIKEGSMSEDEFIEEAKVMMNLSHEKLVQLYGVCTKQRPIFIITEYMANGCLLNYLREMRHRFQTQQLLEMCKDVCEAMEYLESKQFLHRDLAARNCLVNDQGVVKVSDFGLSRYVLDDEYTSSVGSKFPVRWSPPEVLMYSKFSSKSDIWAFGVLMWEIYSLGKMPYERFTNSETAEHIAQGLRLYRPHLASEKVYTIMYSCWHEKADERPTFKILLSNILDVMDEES

With Cc1cc(-c2n[nH]c3ncc(-c4ccc(C5CCN(CCc6ccc(C7CCC(=O)NC7=O)cc6)CC5)cc4)cc23)ccc1CNC(=O)c1nc(C(C)(C)C)no1 (stereo not shown) [Example 31, 3-(tert-butyl)-N-(4-(5-(4-(1-(4-(2,6-dioxopiperidin-3-yl)phenethyl)piperidin-4-yl)phenyl)-1H-pyrazolo[3,4-b]pyridin-3-yl)-2-methylbenzyl)-1,2,4-oxadiazole-5-carboxamide] as the compound, how does the DC50 [1] read?
Its DC50 is over 2000 nM.

What about the Dmax [1] of the same compound?
Its Dmax is 12%.

What does the source list for Cc1cc(-c2n[nH]c3ncc(-c4ccc(C5CCN(CCc6cc(F)c([C@H]7CCC(=O)NC7=O)c(F)c6)CC5)cc4)cc23)ccc1CNC(=O)c1nc(C(C)(C)C)no1 [Example 32, (R)-3-(tert-butyl)-N-(4-(5-(4-(1-(4-(2,6-dioxopiperidin-3-yl)-3,5-difluorophenethyl)piperidin-4-yl)phenyl)-1H-pyrazolo[3,4-b]pyridin-3-yl)-2-methylbenzyl)-1,2,4-oxadiazole-5-carboxamide]?
DC50 [1]: 5.33 nM; Dmax [1]: 97.4%

Which DC50 [2] does the source give for Cc1cc(-c2cc(Nc3ccc(N4CCN(CCc5cc(F)c([C@H]6CCC(=O)NC6=O)c(F)c5)CC4)cn3)ncn2)ccc1[C@@H](C)NC(=O)c1nc(C(C)(C)C)no1 [Example C41, 3-(tert-butyl)-N—((R)-1-(4-(6-((5-(4-(4-((R)-2,6-dioxopiperidin-3-yl)-3,5-difluorophenethyl)piperazin-1-yl)pyridin-2-yl)amino)pyrimidin-4-yl)-2-methylphenyl)ethyl)-1,2,4-oxadiazole-5-carboxamide] here?
The DC50 was 2.73 nM.

What about the IC50 [3] of the same compound?
The IC50 was over 10000 nM.

How did the DC50 [4] turn out when CCc1nc(C(N)=O)c(Nc2ccc(N3CCC(N4CCN(CCc5cc(F)c(C6CCC(=O)NC6=O)c(F)c5)CC4)CC3)c(OC)c2)nc1NC1CCOCC1 (stereo not shown) [Example D42, 3-((4-(4-(4-(4-(2,6-dioxopiperidin-3-yl)-3,5-difluorophenethyl)piperazin-1-yl)piperidin-1-yl)-3-methoxyphenyl)amino)-6-ethyl-5-((tetrahydro-2H-pyran-4-yl)amino)pyrazine-2-carboxamide] was run?
Its DC50 is 2.8 nM.

Reference: patent US20240207267A1, “(R)-Glutarimide CRBN Ligands and Methods of Use” (BeiGene Switzerland GmbH, priority 2021, published 2024)
